Legend:
Assay type in all cases: functional; call rule not given here
[1] = molecular target: T1, Peroxisome proliferator-activated receptor alpha (Homo sapiens, UniProt Q07869); assay: Agonist activity at human recombinant PPARalpha by GAL4 transactivation assay
T1 sequence (Q07869 whole entry): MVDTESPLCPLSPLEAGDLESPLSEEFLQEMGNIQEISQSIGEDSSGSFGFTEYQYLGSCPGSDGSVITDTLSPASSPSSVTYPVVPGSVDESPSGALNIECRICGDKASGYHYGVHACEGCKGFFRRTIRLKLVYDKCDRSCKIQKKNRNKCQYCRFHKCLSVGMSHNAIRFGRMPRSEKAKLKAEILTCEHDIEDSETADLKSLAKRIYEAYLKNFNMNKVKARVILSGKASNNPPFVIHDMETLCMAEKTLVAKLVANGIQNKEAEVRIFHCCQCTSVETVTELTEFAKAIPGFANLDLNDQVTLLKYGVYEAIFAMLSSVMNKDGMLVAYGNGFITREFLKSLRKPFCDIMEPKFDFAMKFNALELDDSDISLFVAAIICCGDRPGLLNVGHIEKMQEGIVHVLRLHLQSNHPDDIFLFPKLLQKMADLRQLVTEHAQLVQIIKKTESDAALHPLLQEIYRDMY

[2] = molecular target: T2, Peroxisome proliferator-activated receptor gamma (Homo sapiens, UniProt P37231); assay: Agonist activity at human recombinant PPARgamma by GAL4 transactivation assay
T2 sequence (P37231 whole entry): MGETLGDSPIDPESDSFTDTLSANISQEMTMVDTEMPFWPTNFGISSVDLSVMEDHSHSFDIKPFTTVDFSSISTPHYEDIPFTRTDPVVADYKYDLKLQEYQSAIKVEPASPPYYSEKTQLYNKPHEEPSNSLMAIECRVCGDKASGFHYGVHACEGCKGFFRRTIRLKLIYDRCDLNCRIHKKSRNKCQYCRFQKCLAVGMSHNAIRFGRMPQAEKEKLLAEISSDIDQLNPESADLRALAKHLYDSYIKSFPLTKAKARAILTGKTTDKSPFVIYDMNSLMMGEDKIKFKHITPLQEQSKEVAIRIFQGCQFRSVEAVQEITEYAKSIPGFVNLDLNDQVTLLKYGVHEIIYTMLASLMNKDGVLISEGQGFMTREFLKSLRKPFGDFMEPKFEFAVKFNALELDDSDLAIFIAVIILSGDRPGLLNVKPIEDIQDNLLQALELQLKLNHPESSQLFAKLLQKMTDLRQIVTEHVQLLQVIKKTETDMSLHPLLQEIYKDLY

[3] = molecular target: T3, Peroxisome proliferator-activated receptor delta (Homo sapiens, UniProt Q03181); assay: Agonist activity at human recombinant PPARdelta by GAL4 transactivation assay
T3 sequence (Q03181 whole entry): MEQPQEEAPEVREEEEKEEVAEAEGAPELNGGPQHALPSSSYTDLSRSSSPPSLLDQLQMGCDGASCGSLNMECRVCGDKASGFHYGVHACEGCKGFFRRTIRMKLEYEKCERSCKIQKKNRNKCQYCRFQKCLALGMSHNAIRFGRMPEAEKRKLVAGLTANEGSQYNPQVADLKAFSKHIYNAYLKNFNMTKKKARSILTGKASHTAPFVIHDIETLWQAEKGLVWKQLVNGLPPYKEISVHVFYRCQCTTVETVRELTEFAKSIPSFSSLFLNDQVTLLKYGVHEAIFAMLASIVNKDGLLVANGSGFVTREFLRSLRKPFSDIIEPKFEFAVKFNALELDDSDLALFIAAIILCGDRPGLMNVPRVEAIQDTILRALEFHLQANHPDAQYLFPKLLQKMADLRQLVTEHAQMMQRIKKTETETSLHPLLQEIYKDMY

Mus musculus [4] = assay: Increase in plasma HDL-C in human apoA1 transgenic mouse at 300 mg/kg after 14 days
Rattus norvegicus [5] = assay: Decrease in triglyceride level in Sprague-Dawley rat at 1 mg/kg after 7 days; design: scale not given: the % may be the effect or the level left
Rattus norvegicus [6] = assay: Increase in liver weight in Sprague-Dawley rat at 1 mg/kg after 7 days
Mus musculus [7] = assay: Increase in plasma HDL-C in human apoA1 transgenic mouse at 3 mg/kg after 14 days
Mus musculus [8] = assay: Increase in plasma HDL-C in human apoA1 transgenic mouse at 1 mg/kg after 14 days

| Structure (SMILES) | EC50 ([1]; read-out: EC50) [nM] | EC50 ([2]; read-out: EC50) [nM] | EC50 ([3]; read-out: EC50) [nM] | also measured |
| --- | --- | --- | --- | --- |
| CCC(Oc1cccc(CN(CCCOc2ccc(F)cc2F)c2nc3ccccc3o2)c1)C(=O)O (centres undefined) | 11 | 2100 | 6500 |  |
| CCC(Oc1cccc(CN(CCCOc2ccc(O)cc2)c2nc3ccccc3o2)c1)C(=O)O (centres undefined) | 260 | 1400 | 3 |  |
| CCC(Oc1cccc(CN(CCCOc2ccccc2)c2nc3cccc(F)c3o2)c1)C(=O)O (centres undefined) | 2 | 530 | 8000 |  |
| CC(C)OC(=O)C(C)(C)Oc1ccc(C(=O)c2ccc(Cl)cc2)cc1 [FENOFIBRATE] |  |  |  | Activity (Mus musculus [4]): 145% |
| CCC(Oc1cccc(CN(CCCOc2ccccc2)c2nc3cc(C(F)(F)F)ccc3o2)c1)C(=O)O (centres undefined) | 23 | 400 | 160 |  |
| CC(C)(Oc1cccc(CN(CCCOc2ccccc2)c2nc3ccccc3o2)c1)C(=O)O | 190 | 5000 | 1400 |  |
| CC[C@@H](Oc1cccc(CN(CCCOc2ccccc2)c2nc3ccccc3o2)c1)C(=O)O |  |  |  | Activity (Rattus norvegicus [5]): -51%; Activity (Rattus norvegicus [6]): 19%; Activity (Mus musculus [7]): 201% |
| CC[C@@H](Oc1cccc(CN(CCCOc2ccc(F)cc2)c2nc3ccccc3o2)c1)C(=O)O |  |  |  | Activity (Rattus norvegicus [5]): -46%; Activity (Rattus norvegicus [6]): 20%; Activity (Mus musculus [7]): 147% |
| CCC(Oc1cccc(CN(CCCOc2ccccc2)c2nc3cc(O)ccc3o2)c1)C(=O)O (centres undefined) | 180 | > 10000 | 140 |  |
| CC[C@H](Oc1cccc(CN(CCCOc2ccccc2)c2nc3ccccc3o2)c1)C(=O)O | 130 | 870 | 1660 |  |
| CC(C)(Oc1cccc(CCCN(CCOc2ccccc2)c2nc3ccccc3o2)c1)C(=O)O |  | 100 | 800 |  |
| CCC(Oc1cccc(CN(CCCOc2ccc(C)c(C)c2)c2nc3ccccc3o2)c1)C(=O)O (centres undefined) | 1 | 750 | 830 |  |
| CC(C)(Oc1cccc(CN(CCOc2ccccc2)c2nc3ccccc3o2)c1)C(=O)O | 630 | 2100 |  |  |
| CC[C@@H](Oc1cccc(CN(CCCOc2ccc(OC)cc2)c2nc3ccccc3o2)c1)C(=O)O [PEMAFIBRATE] |  |  | 1580 | Activity (Rattus norvegicus [5]): -49%; Activity (Rattus norvegicus [6]): 25%; Activity (Mus musculus [8]): 194% |
| CCC(Oc1cccc(CN(CCCOc2ccccc2)c2nc3ccccc3o2)c1)C(=O)O (centres undefined) | 9 | > 10000 |  |  |
| CCC(Oc1cccc(CN(CCCOc2ccc(F)c(F)c2)c2nc3ccccc3o2)c1)C(=O)O (centres undefined) | 2 | 1800 | 1300 |  |

| Structure (SMILES) | EC50 ([1]; read-out: EC50) [nM] | EC50 ([2]; read-out: EC50) [nM] | EC50 ([3]; read-out: EC50) [nM] | also measured |
| --- | --- | --- | --- | --- |
| CC(C)(Oc1ccc(CN(CCOc2ccccc2)c2nc3ccccc3o2)cc1)C(=O)O |  |  |  | EC50 [1]: Not Active; EC50 [2]: Not Active; EC50 [3]: Not Active |
| CCC(Oc1cccc(CN(CCCOc2cccc([N+](=O)[O-])c2)c2nc3ccccc3o2)c1)C(=O)O (centres undefined) | 24 | > 10000 | 1400 |  |
| CCC(Oc1cccc(CN(CCCOc2ccc3c(c2)OCO3)c2nc3ccccc3o2)c1)C(=O)O (centres undefined) | 7 | 1800 | 1700 |  |
| CC[C@H](Oc1cccc(CN(CCCOc2ccc(F)cc2)c2nc3ccccc3o2)c1)C(=O)O | 20 | 1190 | 1570 |  |
| CCC(Oc1cccc(CN(CCCOc2ccc(OC)cc2)c2nc3ccccc3o2)c1)C(=O)O (centres undefined) |  | > 10000 |  |  |
| CC(Oc1cccc(CCN(CCCOc2ccccc2)c2nc3ccccc3o2)c1)C(=O)O (centres undefined) | 10 | 1800 | 2300 |  |
| CCC(Oc1cccc(CN(CCCOc2ccc(C)cc2C)c2nc3ccccc3o2)c1)C(=O)O (centres undefined) | 1 | 130 | 110 |  |
| CC[C@H](Oc1cccc(CN(CCCOc2ccc(OC)cc2)c2nc3ccccc3o2)c1)C(=O)O |  | 1310 | 1800 |  |
| CCC(Oc1cccc(CN(CCCOc2ccc(F)cc2)c2nc3ccccc3o2)c1)C(=O)O (centres undefined) | 8 | > 10000 |  |  |
| CCC(Oc1cccc(CN(CCCOc2ccc(C)cc2)c2nc3ccccc3o2)c1)C(=O)O (centres undefined) |  | 210 | 120 |  |
| CC(C)(Oc1ccccc1CN(CCOc1ccccc1)c1nc2ccccc2o1)C(=O)O |  |  |  | EC50 [1]: Not Active; EC50 [2]: Not Active; EC50 [3]: Not Active |
| CCC(Oc1cccc(CN(CCCOc2ccccc2)c2nc3c(O)cccc3o2)c1)C(=O)O (centres undefined) | 160 | 2000 | 1900 |  |
| CC(Oc1cccc(CN(CCCOc2ccccc2)c2nc3ccccc3o2)c1)C(=O)O (centres undefined) |  |  | 2700 |  |
| CCC(Oc1cccc(CN(CCCOc2ccc(S(=O)(=O)OC)cc2)c2nc3ccccc3o2)c1)C(=O)O (centres undefined) | 120 | > 10000 |  |  |
| CCC(Oc1cccc(CN(CCCOc2ccccc2)c2nc3cc(C)ccc3o2)c1)C(=O)O (centres undefined) | 100 | > 10000 | 5000 |  |
| CCC(Oc1cccc(CN(CCCOc2ccccc2)c2nc3ccc(F)cc3o2)c1)C(=O)O (centres undefined) | 5 | 1100 | 1900 |  |
